Biological target: T1, Bfl-1 (Homo sapiens, UniProt Q16548)
T1 construct: lacking their C-terminal transmembrane domains (approximately last 20 amino-acids); made in house; host or cells: XL-1 Blue cells (E. coli), pGEX 4T-1
T1 sequence (Q16548 1-155 limits assumed): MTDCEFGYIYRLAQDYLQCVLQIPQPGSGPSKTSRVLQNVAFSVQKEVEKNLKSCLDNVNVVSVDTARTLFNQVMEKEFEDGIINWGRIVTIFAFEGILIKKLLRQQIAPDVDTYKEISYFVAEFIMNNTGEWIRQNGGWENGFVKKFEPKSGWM
Assay: Bfl-1 TR-FRET assay (FITC-Bid, Tb-anti-GST antibody)
Type: binding
Details: Tables 3-5; read-out: Bfl-1 TR FRET IC50
Experimental: TR-FRET assay. For confirmation of FPA results, a TR-FRET assay utilizing terbium- (Tb-) labeled anti-GST antibody (Th-Ab) was developed. […] The reaction mixture was preincubated for 1 h, and TR-fluorescence (TRF) was measured on an M5 plate reader (Molecular Devices) using excitation at 340 nm and emission at […]. The measurements were averaged from 5 readings during 1 ms after an initial delay 0.1 ms. TR-FRET signal was calculated as the ratio of TR-Fluorescence at 520 nm to TR-Fluorescence at […].
For Bfl-1 TR-FRET assays, Bfl-1 protein and FITC-Bid peptide (FITC-Ahx-[…]) (SEQ ID NO: 1) were utilized. Terbium-anti-GST antibody (Tb-anti-GST Ab) was obtained from Invitrogen (San Diego Calif.). The assay buffer contained 25 mM Bis-Tris, pH 7.0, 1 mM TCEP, and 0.005% Tween 20. The Tb-Ab buffer contained 2.5 nM Tb-anti-GST antibody in assay buffer. The Bfl-1/Th-Ab working solution contained 5 nM Bfl-1 in Th-Ab assay buffer. The solution was prepared fresh and kept on ice prior to use. The FITC-Bid working solution contained 5.6 nM FITC-Bid in assay buffer.
For the Bfl-1 TR-FRET dose-response screening protocol, dose-response curves contained 10 concentrations of compounds obtained using 2-fold serial dilution. Compounds were serially diluted in 100% DMSO, and then diluted with water to 10% final DMSO concentration. A 4 μl aliquot of compounds in 10% DMSO was transferred into columns 3-22 of Greiner 384-well white small-volume plates. Columns 1-2 and 23-24 contained 4 μL of 10% DMSO.
Columns 1-2 were reserved for positive controls, and 8 μL of Th-Ab buffer was added using a WellMate bulk dispenser (Matrix). An aliquot of 8 μL of Bfl-1/Th-Ab working solution was added to columns 3-24 of Greiner 384 well white plates using a WellMate bulk dispenser (Matrix). Columns 23-24 represented negative control wells. Plates were incubated for 1 h at 4° C. An 8 μL aliquot of freshly prepared FITC-Bid working solution was added to the whole plate using WellMate bulk dispenser (Matrix). Plates were incubated for 4 h at room temperature protected from direct light. Fluorescence was measured on the M5 plate reader (excitation: 340 nm, emission: 490 and 520 nm, cutoff: 475 and 515 nm, respectively) in Time Resolved (TR) mode with signal integrated for 1 ms after initial delay of 0.1 ms. TR-FRET signal was calculated as the ratio of TR-Fluorescence at 520 nm to TR-Fluorescence at 490 nm. Data analysis was performed using a sigmoidal dose-response equation through non-linear regression.

**Q.** For `CN(C)C1=C(Cl)C(=O)N(c2ccc(Cl)c(Cl)c2)C1=O` [CID-779754, 3-chloro-1-(3,4-dichlorophenyl)-4-(dimethylamino)-1H-pyrrole-2,5-dione], which IC50 is on record?
**A.** The IC50 was 0.57 µM.

Reference: patent US20090069324A1, “CHEMICAL INHIBITORS OF BFL-1 AND RELATED METHODS” (The Burnham Institute, priority 2007, published 2009)
